Experimental data published in US5169850A, “N-(dialkylamino)methylene)-substituted pyrazolo(1,5-a)-pyrimidine-3-carboxamides and N-(dialkylamino)methylene-substituted-4,5-dihydropyrazolo-(1,5-a)-pyrimi dine-3-carboxamides” (American Cyanamid Company, priority 1991, dated 1992).
“And” between values parts separate entries of the source, which are not always exact repeats. Equal entries are not always repeated.

Tests used:
[1] = Passive-Avoidance Anoxic-Induced-Amnesia Test; format: in vivo, Swiss-Webster mice; settings: vs saline control, active if 30 percent
Text: Another in vivo test associated with decreased neural function in mammals is the Passive-Avoidance Anoxic-Induced-Amnesia Test. This test is used to determine the attenuation of anoxic induced amnesia in mice treated with drug, as compared to saline treated control animals with no drug.
A shock-motivated, single trial, step-through passive avoidance procedure is used. Groups of 25 Swiss-Webster, middle aged mice (9 months of age) are placed singly in the front chamber of a 2-chamber box and are allowed to voluntarily cross into the rear chamber. As soon as the mouse enters the rear chamber, a door automatically traps the animal and a mild electric shock (0.4 mA for 4 seconds) is delivered to its feet. Following the foot shock, the mice are initially placed in an anoxic environment (0 percent oxygen) for 12 seconds, which quickly induces unconsciousness. They are then placed in a hypoxic environment (15 percent oxygen) for four minutes which prolongs the oxygen deprived state, maintaining unconsciousness. All testing is performed 24 hours later, and in all cases the mice appear fully recovered from the previous anoxic/hypoxic treatment. All test compounds are administered intraperitoneally at a dose of 5-200 mg/kg, 30 minutes prior to training and testing. Control animals are injected intraperitoneally only with saline at 0.01 cc/g of body weight.
The latency to enter the rear chamber is recorded for both training and testing. Presumably, the more the animal remembers being shocked, the greater it will inhibit going into the rear chamber and the higher will be its latency to re-enter. An improvement of 30 percent over saline control scores is considered active.

[2] = test system: Brain-Specific Receptors of Rats (3H-benzodiazepine binding); assay: Inhibition of the binding of 3H-benzodiazepine to brain-specific receptors of rats; parameters: species or system rat (male albino, Wistar strain); settings: 3H-diazepam or 3H-flunitrazepam, rat cortex P2 fraction, pH 7.4, 30 min in ice; test concentration not given
Text: Still another test utilized for the determination of anxiolytic activity is the measurement of the ability of a test compound to inhibit the binding of tritiated benzodiazepines to brain-specific receptors of mammals. A modification of the method described by R. F. Squires, et al, Nature, 266, No. 21:732 (April, 1977) and H. Mosler, et al, Science, 198:849 (1977) was employed.
Male albino rats (Wistar strain, weighing 150-200 g each) were used. The test compounds were solubilized in N,N-dimethylformamide, acetic acid, ethanol or hydrochloric acid.
Whole cortex of rats was homogenized gently in 20 volumes of ice-cold 0.32 M sucrose, centrifuged twice at 1000 g for 10 minutes and then recentrifuged at 30,000 g for 20 minutes to produce a crude P2 -synaptosomal fraction. The P2 -fraction was either: (1) resuspended in twice the original volume in hypotonic 50 mM Tris.HCl(pH 7.4), or (2) resuspended in one-half of the original volume in hypotonic 10 mM Tris.HCL (pH 7.4) and frozen (-20° C.) until time of use. Frozen P2 preparations were thawed and resuspended in four times the original homogenizing volume at time of assay.
The binding assay consisted of 300 l of the P2 -fraction suspension (0.2-0.4 mg protein), 100 l of test drug and 100 l of 3H-diazepam 91.5 nM, final concentration) or 3H-flunitrazepam (1.0 nM, final concentration )which was added to 1.5 l of 50 mM Tris.HCl (pH 7.4). Non-specific binding controls and total binding controls received […] of diazepam ([…] final concentration) and 100 l of deionized water, respectively, in place of the test compound. Incubation for 30 minutes proceeded in ice and was terminated by filtration, under vacuum, through glass fiber filters. The filters were washed twice with 5 ml of ice-cold 50 mM Tris.HCl (pH 7.4) and placed in scintillation vials. After drying at 50°-60° C. for 30 minutes, 10 ml of diluent was added and the radioactivity determined in a scintillation counter.
Inhibition of binding was calculated by the difference between total binding and binding in the presence of test compound, divided by the total, times 100. Physiological activity can be shown by a test compound that inhibits 3H-benzodiazepine binding by 12 percent or more.

[3] = Mean arterial blood pressure in spontaneously hypertensive rats; format: in vivo, spontaneously hypertensive rats of the Okamoto strain; settings: gavage, 100 mg/kg or less, two doses 24 h apart, measured at 28 h; average MABP of rats 160±1.5
Protocol: Certain of the novel compounds of the present invention are active hypotensive agents at non-toxic doses when administered to mammals. These compounds were tested for hypotensive activity by the method of P. S. Chan and D. W. Poorvin, Clinical and Experimental Hypertension, 1 (6), […] (1979). Male, 16 week old spontaneously hypertensive rats of the Okamoto strain having an average mean arterial blood pressure of 160±1.5 mm of mercury are used in the test. One to three rats are used per test compound. A rat is dosed by gavage with a test compound, suspended in 2 percent pre-boiled starch at a concentration of50 mg/ml, at a dose of 100 mg/kg of body weight or less, with 0.9 percent sodium chloride loading at a dose of 25 ml/kg of body weight. A second identical dose of the test compound, without sodium chloride loading is given 24 hours later. At 28 hours after the initial dose the mean arterial blood pressure is measured by the method of Chan and Poorvin vide supra. The procedure is repeated in a second and third rat when necessary.

[4] = Protection against clonic seizures caused by pentylenetetrazole; format: in vivo, rats; settings: orally or intraperitoneally, pentylenetetrazole 23 mg/kg i.v. at 30 or 60 min
Protocol: The anti-anxiety properties of the novel compounds of the present invention have been established in a test which indicates anxiolytic activity by the measure of protection from convulsions resulting from the administration of pentylenetetrazole. Single or graded dose levels of the test compounds were administered orally or intraperitoneally in a 2 percent starch vehicle containing 0.5 percent v/v polyethylene glycol and one drop of Polysorbate 80, or distilled water and one drop of Polysorbate 80 to groups of at least four rats. At 30 or 60 minutes, the rats were treated intravenously with pentylenetetrazole at a dose of 23 mg/kg of body weight. This dose is estimated to cause clonic seizures in 99 percent of unprotected rats. The test compounds are considered active if they protect 50 percent or more of the rats from clonic seizures.
It has been reported (R. T. Hill and D. H. Tedeschi, "Animal Testing and Screening Procedures in Evaluating Psychotropic Drugs" in "An Introduction to Psychopharmacology", pp 237-288 (Eds. R. R. Rech and K. E. Moore, Raven Press, New York, 1971)) that there is a high degree of correlation between antagonism of pentylenetetrazole seizures in rats and anti-anxiety effects in higher warm-blooded animals.

[5] = Hypoxic Survival Test; format: in vivo, Royal Hart mice; settings: for % Survivors: 30 min before hypoxia, survival after 5 min
Protocol: A useful in vivo test that measures how effectively central nervous system-acting drugs enhance survival in an hypoxic environment, presumably by improving the ratio of energy supply to demand is known as the Hypoxic Survival Test. […] Drugs are tested by intraperitoneally injecting groups of mice 30 minutes prior to placing them in hypoxic mixture and measuring survival. The rationale of this test is that drugs which enhance survival under hypoxic conditions without concomitant, depression or sedative side effects, may do so by enhancing energy metabolism, or by preserving normal brain function under conditions of reduced energy metabolism. Given the dependence of the brain on a constant supply of energy, drugs which have this property may have many far-reaching therapeutic indications, including recovery from stroke and closed head injury, as well as reducing the deleterious effects of the aging central nervous system. […]
A separate group of 20 mice is injected intraperitoneally with saline solution (0.01 cc/g of body weight) and processed as described above.
Still another group of 20 mice is injected intraperitoneally with 0.125 mg/kg of physostigmine and processed as described above.

[6] = Conflict procedure (non-conditioned passive avoidance); format: in vivo, Wistar strain rats; settings: 25 mg/kg oral, 60 min before test
Protocol: Another test used to assess anti-anxiety effects is a non-conditioned passive avoidance procedure described by J. R. Vogel, G. Beer and D. E. Clody, "A Simple and Reliable Conflict Procedure for Testing Antianxiety Agents", Psychopharmacologia, 21, 1-7 (1971). A conflict situation was induced in rats by a modification of this method.
Groups of 8 naive, Wistar strain rats, weighing 200-240 g each, were deprived of water for 48 hours. The test compounds were administered in single or graded, oral doses, suspended in 2 percent starch with […] polyethylene glycol in distilled water and one drop of Polysorbate 80. Control animals received the vehicle alone. At 60 minutes each rat was placed in an individual clear plastic chamber. Tap water was available ad libitum from a nipple located in a black box off the main chamber. A 0.7 milliampere AC shocking current was established between the stainless steel grid floor and the tap. After 20 licks of non-shocked drinking, a 2 second shocking current was administered to the rat. This ratio of 20 licks of non-shocked drinking followed by a 2 second shock was continued for a total of 3 minutes. The number of shocks taken by each rat during the 3 minute interval was recorded and compared to a control group. […]

CC(=NC(=O)c1cnn2c(-c3cccnc3)ccnc12)N(C)C [N-((Dimethylamino)ethylidene)-7-(3-pyridinyl)pyrazolo(1,5-a)pyrimidine 3-carboxamide]
% Improvement ([1]; 25 mg/kg i.p.): 53%
% Improvement ([1]; 50 mg/kg i.p.): 46%

CN(C)C=NC(=O)c1cnn2c1NCC=C2c1cccnc1 [N-((Dimethylamino)methylene)4,5-dihydro-7-(3-pyridinyl)pyrazolo(1,5-a)pyrimidine-3-carboxamide]
% Improvement ([1]; 50 mg/kg i.p.): 66%
% Improvement ([1]; 100 mg/kg i.p.): 54%
% Inhibition [2]: 32%
MABP/mmHg (no. of rat) [3]: 113 mmHg

Cc1cccc(-c2ccnc3c(C(=O)N=CN(C)C)cnn23)c1 [N-((Dimethylamino)methylene) 7-(3-methylphenyl)pyrazolo(1,5-a)pyrimidine-3-carboxamide]
% of Rats Protected ([4]; 50 mg/kg): 50%
% Inhibition [2]: 65%

Cc1cc(-c2ccccc2)n2nc(C)c(C(=O)N=CN(C)C)c2n1 [N-((Dimethylamino)methylene)-2,5-dimethyl-7-phenylpyrazolo(1,5-a)pyrimidine-3-carboxamide]
% Survivors ([5]; 100 mg/kg i.p.): 42%

Cc1nn2c(-c3ccncc3)ccnc2c1C(=O)N=CN(C)C [N-((Dimethylamino)methylene)-2-methyl-7-(4-pyridinyl)pyrazolo(1,5-a)pyrimidine-3-carboxamide]
% Survivors ([5]; 10 mg/kg i.p.): 55%
MABP/mmHg (no. of rat) [3]: 130 mmHg

Cc1nn2c(-c3ccccc3)ccnc2c1C(=O)N=CN(C)C [N-((Dimethylamino)methylene)-2-methyl-7-phenylpyrazolo(1,5-a)pyrimidine-3-carboxamide]
% Survivors ([5]; 0.1 mg/kg i.p.): 45%
% Survivors ([5]; 10 mg/kg i.p.): 100%
% Survivors ([5]; 100 mg/kg i.p.): 97%
% Survivors ([5]; 200 mg/kg i.p.): 95%
% Improvement ([1]; 5 mg/kg i.p.): 49%
% Improvement ([1]; 10 mg/kg i.p.): 37%
% Improvement ([1]; 25 mg/kg i.p.): 66%
% Improvement ([1]; 50 mg/kg i.p.): 66%
% Inhibition [2]: 18%

CN(C)C=NC(=O)c1cnn2c1NCC=C2c1cccc(C(F)(F)F)c1 [N-((Dimethylamino)methylene)-4,5-dihydro-7-(3-(trifluoromethyl)phenylpyrazolo(1,5-a)-pyrimidine-3-carboxamide]
% Survivors ([5]; 50 mg/kg i.p.): 75%
% Survivors ([5]; 100 mg/kg i.p.): 57%
% Improvement ([1]; 25 mg/kg i.p.): 49%
% Improvement ([1]; 50 mg/kg i.p.): 57%
% of Rats Protected ([4]; 12.5 mg/kg): 88%
% of Rats Protected ([4]; 25 mg/kg): 75% and 88%
Result (no. of shocks per 3 min.) [6]: 22.9 no. of shocks per 3 min.
% Inhibition [2]: 17%
MABP/mmHg (no. of rat) [3]: 131 mmHg

Cc1cnc2c(C(=O)N=CN(C)C)cnn2c1 [N-((Dimethylamino)methylene)-6-methyl-pyrazolo(1,5-a)pyrimidine-3-carboxamide]
% Survivors ([5]; 10 mg/kg i.p.): 42%
% Survivors ([5]; 50 mg/kg i.p.): 40%
% Survivors ([5]; 100 mg/kg i.p.): 62%
% Survivors ([5]; 200 mg/kg i.p.): 45%

CN(C)C=NC(=O)c1cnn2c(-c3cccnc3)ccnc12 [N-((Dimethylamino)methylene)-7-(3-pyridinyl)-pyrazolo(1,5-a)pyrimidine-3-carboxamide]
% Survivors ([5]; 25 mg/kg i.p.): 80% and 58% and 42%
% Improvement ([1]; 25 mg/kg i.p.): 33%
% Improvement ([1]; 50 mg/kg i.p.): 33%

CN(C)C=NC(=O)c1cnn2c(-c3cccc(C(F)(F)F)c3)ccnc12 [N-((Dimethylamino)methylene)-7-(3-trifluoromethyl)phenyl)pyrazolo(1,5-a)pyrimidine-3-carboxamide]
% Inhibition [2]: 82%

CN(C)C=NC(=O)c1cnn2c(-c3ccccc3)ccnc12 [N-((Dimethylamino)methylene)-7-phenylpyrazolo(1,5-a)-pyrimidine-3-carboxamide]
% Inhibition [2]: 28%

CNC(=O)Oc1ccc2c(c1)[C@]1(C)CCN(C)[C@@H]1N2C [physostigmine, reference compound]
percent of physostigmine treated mice that survive ([5]; 10 percent oxygen, after 5 minutes, control mice 5-20 percent, dose 0.125 mg/kg i.p.): 60-80%
